Experimental data as given in US20240269215A1, “NUTRITIONAL COMPOSITION FOR MUSCLE MASS, STRENGTH AND FUNCTION” (N.V. Nutricia, priority 2021, published 2024).
“And” between values parts separate entries of the source, which are not always exact repeats. Equal values may be shown once.

How the values were obtained:
[1] = Leucine bioavailability (plasma leucine from dry blood spots) in aged mice; assay type: in vivo
Method: Aged mice (animal model: see example 1) were fed with one of the 4 supplements at TO and after 10 minutes a droplet of blood from the tail was collected and stamped on a card. […] The results are plotted in FIG. 2A. Since feces was not collected, it was not possible to precisely calculate the N in- and output. […] Summarized, the amount of leucine present in the intact protein was known from the analyses of the pure protein sources (data sheets available). […] Since fasted mice also show a baseline level of plasma leucine, these values were then deducted from the obtained leucine plasma values (column D in table below). […] It was then calculated the contribution of the increase from the intact Leu (column E) and from the added free leucine (column F).

[2] = system: Muscle Protein Synthesis (MPS); conditions: same experimental protocol, earlier work; cited from earlier work

- bioavailability factor of leucine (rise of plasma leucine per mg of leucine consumed) [1]: 17.4 mmol/L/mg and 17.3 mmol/L/mg
Compound: CC(C)C[C@H](N)C(=O)O [free leucine, L-leucine]
- anabolic (MPS) response in aged mice, Dijk (2018) [2]: did not show an anabolic response
